In assay [1] the test system is C57BL/6J mice. Nature of the assay: Oral glucose tolerance test. In kind it is in vivo. Particulars: Table 2; 100 mg/kg oral gavage, 3 g/kg oral glucose, mice fasted 6 hours. The protocol:
8-10 week old male C57BL/6J mice (Harlan) were maintained on regular chow diet from Harlan (2018 Teklad Global). On the day of the experiment mice were fasted for 6 hours, then randomized into groups (n=10-15) to receive the tested GPR120 agonist at doses ranging from 100 mg/kg or the vehicle (1% CMC, 2% TWEEN 80). Compounds were delivered orally via gavage at 10 mL/kg. Blood glucose levels were measured by glucometer (Ascensia Elite XL, Bayer) at time −30 minutes before administration of compound. Blood glucose was measured again after 30 minutes (at time 0), and then the mice were dosed orally with 3 g/kg glucose at 10 mL/kg. […]
Glucose levels were plotted against time, and the incremental area under the curve (AUC) of the glucose excursion was determined from time 0 using Graphpad Prism 5.01. Outliers were excluded using Tukey's box plot outlier test, and statistical significance of differences in AUC of compound treatment compared to vehicle was determined by non-parametric Kruskal-Wallis test with Dunn's post test.
Tables 2 and 3 below show the mean percentage inhibition of the glucose excursion for the fifteen animals tested in each group. The compounds were tested at 100 mg/kg and the levels of blood glucose were determined in the presence and absence of the tested compounds. […]

Assay [2] deals with T1, human GPR120 (Homo sapiens, UniProt Q5NUL3).
T1 construct: Flag (DYKDDDDK) (N); host or cells: HEK293 cells co-expressing Gqi5
T1 sequence (Q5NUL3 1-361): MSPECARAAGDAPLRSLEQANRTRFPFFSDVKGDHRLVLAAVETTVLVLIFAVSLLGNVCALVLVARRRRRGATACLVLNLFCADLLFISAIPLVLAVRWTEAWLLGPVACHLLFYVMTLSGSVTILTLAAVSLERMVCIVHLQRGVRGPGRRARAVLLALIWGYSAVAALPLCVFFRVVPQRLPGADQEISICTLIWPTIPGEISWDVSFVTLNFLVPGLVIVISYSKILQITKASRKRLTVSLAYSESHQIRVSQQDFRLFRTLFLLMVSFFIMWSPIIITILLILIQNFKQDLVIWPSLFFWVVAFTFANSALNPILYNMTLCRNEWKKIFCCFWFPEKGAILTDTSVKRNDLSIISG
Nature of the assay: Intracellular Ca2+ assay (FLIPR Calcium 4, Flexstation) in human GPR120 stable cell line. Format: cell-based. Particulars: % activity at 5 μM compared to the maximal activity of GW9508 at 6.7 μM; HEK293 cells co-expressing Gqi5.

Take `CC(Cc1ccc(OCc2cc(Cl)cc3c2OC(C)(C)C3)c(F)c1)C(=O)O` (centres unmarked) [Example 10, 3-(4-((5-chloro-2,2-dimethyl-2,3-dihydrobenzofuran-7-yl)methoxy)-3-fluorophenyl)-2-methylpropanoic acid]: the “% reduction AUC glucose excursion at 100 mg/kg” value in assay [1] is 58.1%. Consider `CC(Cc1ccc(OCc2cccc3c2CC(C)(C)O3)cc1)C(=O)O` (centres unmarked) [Example 17, 3-(4-((2,2-dimethyl-2,3-dihydrobenzofuran-4-yl)methoxy)phenyl)-2-methylpropanoic acid], for which the “% Activity (GW9508 Reference Compound)” value in assay [2] is on record as 72.21%.

The values are drawn from patent US8598374B2, “GPR120 receptor agonists and uses thereof” (Metabolex, Inc, priority 2008, dated 2013).
